Laboratory results as given in patent US4648996A, “Phenyl substituted-2,4,6,8-nonatetraenoic acid” (Hoffmann-La Roche Inc., priority 1985, dated 1987).
Read-outs that look alike come from different tables or passages of the source.

Tests used:
[1] = system: adjuvant arthritis in rats; test: Chronic adjuvant arthritis test (Table I); type: in vivo, male Charles River Lewis rats; details: for change in vivo at 75 µmol/kg / change in vivo at 76 µmol/kg / change in vivo at 96 µmol/kg / change in vivo at 60 µmol/kg: Rattus norvegicus, 552 h, day 23; for Body Weight Gain: vehicle 28-31
Method: That the compounds of this invention are effective anti-arthritic agents can be seen from the results obtained when these compounds are administered to rats in accordance with the chronic adjuvant arthritis test system disclosed in Billingham and Davies "Handbook of Experimental Pharmacology" (editors J. R. Vane and S. H. Ferreira) Vol. 50/II, pg. 108-144, Springer-Verlag, Berlin, 1979).
In this procedure, adjuvant arthritis was induced by the subplantar injection on day 0 of 0.05 ml of adjuvant [a suspension of heat-killed, dessicated Mycobacterium butyricum, 0.5% (w/v), in heavy mineral oil containing 0.2% digitonin] into the right hind paw of male Charles River Lewis rats (120-140 g) that were housed individually and given food and water ad lib. Paw volumes (both hind paws) were measured immediately after injection of the adjuvant. Paw Volumes were also measured, to follow the development of inflammation-induced swelling in the arthritic paws, at intervals of 3 to 7 days by immersion of the paw to the level of the lateral malleolus in a mercury plethysmograph.
Drugs were administered once a day (starting on the day of adjuvant injection) by […] using Tween 80 (polyoxyethylene sorbitan mono-oleate) at a dose of 0.25 ml/100 g body weight as the vehicle. Arthritic control rats received daily doses of the vehicle only. On day 23-25, the rats were sacrificed, plasma collected and plasma fibrinogen levels determined (ammonium sulfate turbidimetric method) as described by Exner et al., Amer. J. Clin Path, 71:521-527 (1979). Anti-inflammatory activity of the test drugs were determined by comparing the extent of paw swelling (paw volume on a particular day, i.e. day four to day twenty-five, minus the paw volume on day 0) in drug-treated arthritic rats with the extent of paw swelling in the vehicle-treated arthritic rats. Drug induced decreases in the level of plasma fibrinogen, an acute phase protein that is elevated in the plasma of rats with adjuvant-induced arthritis, were also used to quantitate the anti-inflammatory activity.

[2] = system: MBSA delayed hypersensitivity in mice; test: Delayed hypersensitivity to methylated bovine serum albumin (MBSA); type: in vivo, Male and female MFI mice substrain E33; details: 10 mg.kg^-1 oral
Method: Male and female MFI mice substrain E33. Initial weight approximately 25 gm.
Dosing with vehicle and retinoid commenced on day 0 and finished on day 9.
Each group consisted of 4 male and 6 female mice (separately caged). Drugs were dosed orally at a dose volume of 10 ml.kg^-1 (10 doses).

[3] = system: impregnated sponge granuloma in the rat; test: Impregnated sponge granuloma test in the rat; type: in vivo, AHH/R female rats (PVG derived)
Method: AHH/R female rats (PVG derived) with an initial weight range of 120-140 g. were used.
Sponge preparation. Pellets (6.5 mm diameter) were punched from cellulose sponge cloth ("Wettex") and 0.1 ml. of a suspension containing 0.5 mg.ml^-1 of heat killed M. tuberculosis (human strains C, DT and PN) in sterile saline was applied to each pellet. The pellets were dried, weighed and autoclaved.
Rats were randomly divided into groups of five and daily dosing with test compounds was commenced. After the fifth dose the rats were anaesthetised with Sagatal (45 mg.kg^-1 i.p.) the backs were shaved and two pellets were implanted subcutaneously (one each side) into each rat through a small dorsal midline incision. The incision was closed and the rats allowed to recover from the anaesthetic.
Seven days after implantation the rats were killed and the pellets were removed, dissected free of extraneous tissue and weighed. Each pellet was then placed in a 4 ml aliquot of distilled water, chopped with fine scissors and sonicated. After centrifugation the Na^+ and K^+ content of the supernatant was determined by flame photometry. In addition the adrenal and thumus glands from each rat were dissected out and weighed and the lower hind limbs were removed for measurement of tibial bone breaking strain. Body weights were also recorded throughout the test period.
The mean ± SE for each of the parameters was calculated and differences from the control values were determined by Student's t test (2-tailed). Percentage reductions of granuloma weight, Na^+ and K^+ content and percentage changes of adrenal and thymus, weight and tibial breaking strain were determined.

[4] = system: adjuvant arthritis in the rat; test: Developing adjuvant arthritis in the rat; type: in vivo, AHH/R Female rats (PVG derived); details: 15 mg.kg^-1 p.o.
Method: AHH/R Female rats (PVG derived with an initial weight range of 110 to 140 g. were used.
Adjuvant for injection. An homogenized suspension of heat killed M tuberculosis (Human strains C, DT and PN), 5 mg.Ml^-1 in liquid paraffin was prepared.
Rats were randomly split into groups of five and adjuvant arthritis was induced by the sub-plantar injection of 0.1 ml of adjuvant suspension into the right hind paw of each rat. Test compounds were administered by intubation each morning commencing the day of adjuvant injection. Two groups of control rats were dosed with the vehicle as was a group of three normal rats included for comparative purposes. Dosing was carried out daily until the end of the test on day 15 except for the first weekend (days 5 & 6). Treatment groups are shown in Table III and include etretinate as standard retinoid.
Measurements of right hind paw volume were made initially and on days 2 and 4 after and adjufant injection (primary phase). Right and left hind paw volume were then measured, on day 8 and every two or three days until the end of the experiment on day 15 (secondary phase). At this time the mobility of each ankle joint and the incidence and severity of secondary lesions on nose, ears, forepaws, left hind paw and tail were also assessed in terms of degrees of flexion possible and by using an arbitrary scoring system, respectively.
The time course curves for the injected paws were integrated from days 0 to 4 to reflect primary swelling and from days 8 to 15 (secondary swelling). The secondary swelling in the non-injected paw was integrated similarly from days 8 to 15. Calculations were carried out using a specific computer program which computed mean ± se for each integrated area. The significance of differences from controls was determined by Student's t test (2 tailed) and percentage reductions from control areas were calculated. Percentage improvements in joint mobility and percentage reductions in lesion score were also determined. In the latter case the Wilcoxon rank sum test (2 tailed) was used to express the difference from the control score using raw data. Mean body weight change in each group was recorded.

[5] = system: established adjuvant arthritis in rats; test: Effect on the course of established adjuvant arthritis; type: in vivo, Male Lewis rats from Charles River; details: 1 mg/kg, 7 days
Method: Male Lewis rats from Charles River were used for these experiments.
Heat-killed, dessicated Mycobacteriam butyricum.
Adjuvant arthritis was induced by the injection of 0.1 ml of adjuvant [a suspension of heat-killed, dessicated Mycobacterium butyricum, 0.5% CW/V) in heavy mineral oil containing 0.2% digitonin] into the base of the tail. The arthritis was allowed to develop for 21 days and then the volume of both hind paws were measured using a mercury plethysmograph. The rats were divided into groups of 8 with equal mean paw volumes and then the rats were treated with Compound A, indomethacin (as a control drug), or vehicle for 7 days at the end of the treatment period, the volumes of both hind paws were again measured to assess antiinflammatory effects. Body weight changes were also followed and, at the end of the experiment, plasma was collected for determination of plasma fibrinogen (Exner et. al., Amer. J. Clin. Path, 71: 521-527).
^b Drugs were administered once a day for 7 days by intubation
^c Change in paw volume/body weight equals paw volume body weight on […]

[6] = oral 75 μMol/Kg, read-out: % Reduction in Paw Volume, Left
[7] = oral 75 μMol/Kg, read-out: % Reduction in Paw Volume, Right

## CCCCCCCCCOc1cccc(Cl)c1/C=C/C(C)=C/C=C/C(C)=C/C(=O)O
[1]; [6]
  change in vivo at 75 µmol/kg: -32%
[1]; [7]
  change in vivo at 75 µmol/kg: -29%
[1]; oral 75 μMol/Kg
  Body Weight Gain: +35 g

## CCOC(=O)/C=C(C)/C=C/C=C(C)/C=C/c1c(C)cc(OC)c(C)c1C [Etretinate, reference compound]
[2]; 10 doses
  % increase paw volume: 59 ± 9%
  % reduction (cf. arachis oil control): 46%
[2]; female (F)
  Mean body weight change: -2.0 g
[2]; male (M)
  Mean body weight change: -0.8 g
[3]; 15 mg.kg^-1 p.o.
  % change in adrenal weight: +22.9%
  % change in thymus weight: +15.2%
  % change in tibial breaking strains: -4.6%
  % reduction of granuloma K+: -3.9%
  % reduction of granuloma Na+: 5.9%
  % reduction of granuloma Wet weight: 2.7%
  Body Weight change: +13.3 ± 2.6 g
[3]; 15 mg.kg^-1 p.o., 2 control rats also died
  rats that died under anaesthesia: 1 rat
[4]
  Body Weight Change Days 0-15: +1.0 g
  Body Weight Change Days 8-15: -5.0 g
[4]; day 15
  Joint Mobility (% INC): 50%
  Lesion Score (% RDN): 56%
[4]; days 0-4
  % reduction of paw swelling, Primary (right): 9%
[4]; days 8-15
  % reduction of paw swelling, Secondary (left): 67%
  % reduction of paw swelling, Secondary (right): 30%

## CCCCCCCCCOc1cccc(F)c1/C=C/C(C)=C/C=C/C(C)=C/C(=O)O
[1]; [6]
  change in vivo at 75 µmol/kg: -68%
[1]; [7]
  change in vivo at 75 µmol/kg: -56%
[1]; oral 75 μMol/Kg
  Plasma fibrinogen % change (reduction): -51%
  Body Weight Gain: +46 g

## CCCCCCCCCOc1ccccc1/C=C/C(C)=C/C=C/C(C)=C/C(=O)O [drawing 5]
[1]; oral 76 μMol/Kg, read-out: % Reduction in Paw Volume, Left
  change in vivo at 76 µmol/kg: -58%
[1]; oral 76 μMol/Kg, read-out: % Reduction in Paw Volume, Right
  change in vivo at 76 µmol/kg: -43%
[1]; oral 76 μMol/Kg
  Plasma fibrinogen % change (reduction): -55%
  Body Weight Gain: +27 g

## CC(/C=C/c1ccccc1OCCCCCCCCO)=C\C=C\C(C)=C\C(=O)O
[1]; oral 96 μMol/Kg, read-out: % Reduction in Paw Volume, Left
  change in vivo at 96 µmol/kg: -49%
[1]; oral 96 μMol/Kg, read-out: % Reduction in Paw Volume, Right
  change in vivo at 96 µmol/kg: -37%
[1]; oral 96 μMol/Kg
  Plasma fibrinogen % change (reduction): -35%
  Body Weight Gain: +27 g

## COc1ccc2c(c1)c(CC(=O)O)c(C)n2C(=O)c1ccc(Cl)cc1 [Indomethacin, reference compound]
[5]
  Plasma Fibrinogen: 978 ± 100 mg/dL
[5]; day 28 minus day 22
  Change in Body Weight: 25.6 ± 3.1 g
[5]; day 28 minus day 22, both hind paws
  Change in Paw Volume: -1.22 ± 0.15 mL
[1]; oral 3 μMol/Kg
  Plasma fibrinogen % change (reduction): -30%

## CCCCCCCCNc1ccccc1/C=C/C(C)=C/C=C/C(C)=C/C(=O)OCC
[1]; [6]
  change in vivo at 75 µmol/kg: -53%
[1]; [7]
  change in vivo at 75 µmol/kg: -53%
[1]; oral 75 μMol/Kg
  Body Weight Gain: +24 g

## C[C@@H]1C[C@H]2[C@@H]3CCC4=CC(=O)C=C[C@]4(C)[C@@]3(F)[C@@H](O)C[C@]2(C)[C@@]1(O)C(=O)CO [Dexamethasone]
[3]; 0.5 mg.kg^-1 sc
  % reduction of granuloma K+: 75.2%
  % reduction of granuloma Na+: 51.2%
  % reduction of granuloma Wet weight: 65.5%

## CC1=C(/C=C/C(C)=C/C=C/C(C)=C\C(=O)O)C(C)(C)CCC1 [reference compound]
[1]; oral 60 μMol/Kg, read-out: % Reduction in Paw Volume, Left
  change in vivo at 60 µmol/kg: -49%
[1]; oral 60 μMol/Kg, read-out: % Reduction in Paw Volume, Right
  change in vivo at 60 µmol/kg: -33%
[1]; oral 60 μMol/Kg
  Plasma fibrinogen % change (reduction): -18%
  Body Weight Gain: -7 g

## CCCCCCCCCOc1ccc(OC)cc1/C=C/C(C)=C/C=C/C(C)=C/C(=O)O
[1]; [6]
  change in vivo at 75 µmol/kg: -24%
[1]; [7]
  change in vivo at 75 µmol/kg: -27%
[1]; oral 75 μMol/Kg
  Plasma fibrinogen % change (reduction): -21%
  Body Weight Gain: +27 g
